In the test the target is TRPA1 (Homo sapiens, UniProt O75762). Put plainly: Determination of TRPA1 activity in vitro (TRPA1 antagonism in vitro). Format: cell-based. The settings on record: procedure of Wei et al., Anesthesiology 111 (2009) 147-154.
TRPA1, sequence (O75762 whole entry): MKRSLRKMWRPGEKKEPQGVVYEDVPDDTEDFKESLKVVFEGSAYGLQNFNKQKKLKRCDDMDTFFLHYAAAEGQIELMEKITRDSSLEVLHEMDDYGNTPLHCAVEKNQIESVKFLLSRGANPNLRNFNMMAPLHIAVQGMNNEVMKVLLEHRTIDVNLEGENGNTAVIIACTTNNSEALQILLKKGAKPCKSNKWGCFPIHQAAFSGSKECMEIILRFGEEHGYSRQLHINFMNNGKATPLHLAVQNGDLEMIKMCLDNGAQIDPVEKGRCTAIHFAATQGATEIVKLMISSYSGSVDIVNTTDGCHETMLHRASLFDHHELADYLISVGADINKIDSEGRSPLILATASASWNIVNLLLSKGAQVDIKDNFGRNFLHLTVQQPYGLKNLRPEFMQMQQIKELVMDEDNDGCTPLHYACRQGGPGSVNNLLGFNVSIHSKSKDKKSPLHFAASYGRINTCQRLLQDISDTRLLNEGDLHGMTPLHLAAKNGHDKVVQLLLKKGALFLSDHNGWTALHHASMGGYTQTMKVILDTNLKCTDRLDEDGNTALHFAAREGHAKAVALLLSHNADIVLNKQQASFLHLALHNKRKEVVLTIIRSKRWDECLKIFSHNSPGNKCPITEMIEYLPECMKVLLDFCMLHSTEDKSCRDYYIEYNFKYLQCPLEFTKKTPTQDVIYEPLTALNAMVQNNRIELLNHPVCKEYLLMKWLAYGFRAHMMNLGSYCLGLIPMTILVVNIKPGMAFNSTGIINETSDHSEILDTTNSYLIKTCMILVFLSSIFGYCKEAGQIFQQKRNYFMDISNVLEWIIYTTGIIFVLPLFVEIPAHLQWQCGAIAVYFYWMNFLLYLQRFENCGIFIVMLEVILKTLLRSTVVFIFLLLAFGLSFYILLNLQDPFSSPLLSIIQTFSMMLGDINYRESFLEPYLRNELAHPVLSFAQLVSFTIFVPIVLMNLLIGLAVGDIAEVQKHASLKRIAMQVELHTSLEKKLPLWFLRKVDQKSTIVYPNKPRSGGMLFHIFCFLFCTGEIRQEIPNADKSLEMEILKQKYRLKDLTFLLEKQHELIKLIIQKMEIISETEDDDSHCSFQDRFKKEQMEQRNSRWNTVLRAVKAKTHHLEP

`C#CC(C)(C)NC(=O)c1ccc(C(F)(F)F)nc1NC1CCOCC1` [Example 115, N-(2-Methylbut-3-yn-2-yl)-2-(tetrahydro-2H-pyran-4-ylamino)-6-(trifluoromethyl)nicotinamide] returned a concentration for half-maximal inhibition (IC50) of 4.8 µM.

Compound `C#CC(C)(C)NC(=O)c1ccc(C#N)cc1NC1CCC1` [Example 37, 4-Cyano-2-(cydclobutylamino)-N-(2-methylbut-3-yn-2-yl)benzamide] came in with a half-maximal inhibitory concentration (IC50) of 3.2 µM.

In turn, `C#CC(C)(C)NC(=O)c1cc(OC)c(OC)cc1NCC(C)C` [Example 88, 2-(Isobutylamino)-4,5-dimethoxy-N-(2-methylbut-3-yn-2-yl)benzamide] returned an IC50 of 14.2 µM. Against the preceding compound, the IC50 is about 4.4-fold higher.

`C#CC(C)(C)NC(=O)c1ccc(F)cc1NC1CC1` [Example 90, 2-(Cyclopropylamino)-4-fluoro-N-(2-methylbut-3-yn-2-yl)benzamide] came in with a 50% inhibitory concentration (IC50) of 4.8 µM.

Consider `C#CC(C)(CC)NC(=O)c1cccnc1Nc1ccccc1` (stereo not drawn) [Example 190, N-(3-Methylpent-1-yn-3-yl)-2-(phenylamino)nicotinamide], for which the IC50 was determined as 0.4 µM. This IC50 is about 12-fold lower than that of the compound before.

`C#CC(C)(C)NC(=O)c1cc(OC)ccc1NCCCC(F)(F)F` [Example 96, 5-Methoxy-N-(2-methylbut-3-yn-2-yl)-2-(4,4,4-trifluorobutylamino)-benzamide]: half-maximal inhibition (IC50) was put at 3.7 µM.

As to `C#CC(C)(C)NC(=O)c1cc(F)cnc1NCCC(C)C` [Example 52, 5-Fluoro-2-(isopentylamino)-N-(2-methylbut-3-yn-2-yl)nicotinamide], the IC50 was 1.2 µM.

Compound `C#CC(C)(C)NC(=O)c1cc(F)cc(F)c1NCCC(F)(F)F` [Example 55, 3,5-Difluoro-N-(2-methylbut-3-yn-2-yl)-2-(3,3,3-trifluoropropylamino)-benzamide] had a concentration for half-maximal inhibition (IC50) of 1.7 µM.

Regarding `C#CC(C)(C)NC(=O)c1cc(Cl)cnc1NC(C)C` [Example 26, 5-Chloro-2-(isopropylamino)-N-(2-methylbut-3-yn-2-yl)-nicotinamide], it took 3.3 µM to reach half-maximal inhibition (IC50). Against the preceding compound, the IC50 is about 1.9-fold higher.

Take `C#CC(C)(C)NC(=O)c1cc(Cl)cnc1NCCOC(C)(C)C` [Example 147, 2-(2-tert-Butoxyethylamino)-5-chloro-N-(2-methylbut-3-yn-2-yl)nicotinamide]: half-maximal inhibition (IC50) was put at 5.2 µM.

`C#CC(C)(CC)NC(=O)c1cccnc1Nc1ccc(OC)c(Cl)c1` (stereo not drawn) [Example 192, 2-(3-Chloro-4-methoxyphenylamino)-N-(3-methylpent-1-yn-3-yl)nicotinamide] displayed an IC50 of 0.7 µM. This IC50 is about 7.4-fold lower than that of the compound before.

Consider `C#CC(C)(C)NC(=O)c1cc(F)cnc1Nc1ccc(C2CCCC2)nc1` [Example 140, 2-(6-Cyclopentylpyridin-3-ylamino)-5-fluoro-N-(2-methylbut-3-yn-2-yl)nicotinamide], for which half-maximal inhibition (IC50) required 5.5 µM.

`C#CC(C)(CC)NC(=O)c1cccnc1NC1CCC(F)(F)CC1` (stereo not drawn) [Example 191, 2-(4,4-Difluorocyclohexylamino)-N-(3-methylpent-1-yn-3-yl)nicotinamide]: the IC50 came out at 0.6 µM. This IC50 is about 9.2-fold lower than that of the compound before.

`C#CC(CC)(CC)NC(=O)c1cc(F)ccc1NCC` [Example 103, 2-(Ethylamino)-N-(3-ethylpent-1-yn-3-yl)-5-fluorobenzamide] showed an IC50 of 1.8 µM. This IC50 is about 3-fold higher than that of the compound before.

The compound `C#CC(C)(C)NC(=O)c1cccnc1NC(C)(C)C(F)(F)F` [Example 125, N-(2-Methylbut-3-yn-2-yl)-2-(1,1,1-trifluoro-2-methylpropan-2-ylamino)nicotinamide] yielded an IC50 of 4.6 µM. Against the preceding compound, the IC50 is about 2.6-fold higher.

Turning to `C#CC(C)(C)NC(=O)c1cccnc1Nc1cc(F)cc(OC)c1` [Example 165, 2-(3-Fluoro-5-methoxyphenylamino)-N-(2-methylbut-3-yn-2-yl)nicotinamide], the concentration for half-maximal inhibition (IC50) worked out at 4 µM.

In turn, `C#CC(C)(C)NC(=O)c1cc2c(cc1NCCC(F)(F)F)OCCO2` [Example 6, N-(2-Methylbut-3-yn-2-yl)-7-(3,3,3-trifluoropropylamino)-2,3-dihydrobenzo[b][1,4]dioxine-6-carboxamide] yielded an IC50 of 11.8 µM.

The compound `C#CC(C)(C)NC(=O)c1cc(F)cnc1Nc1cc(C)ns1` [Example 137, 5-Fluoro-N-(2-methylbut-3-yn-2-yl)-2-(3-methylisothiazol-5-ylamino)nicotinamide] gave an IC50 of 9.9 µM. This IC50 and that of the compound before are within 1.5-fold of each other.

Source of the values: US9533952B2, “N-prop-2-ynyl carboxamide derivatives and their use as TRPA1 antagonists” (Orion Corporation, priority 2012, dated 2017).
